Consider one molecule from patent US5354747A, “2-, 3-, 4-, 5-, 6-, 7-, 8-, 9- and/or 10-substituted dibenzoxazepine and dibenzthiazepine compounds, pharmaceutical compositions and methods of use” (G. D. Searle & Co., priority 1993, dated 1994).

Structures can show the parent of a compound that is named as a salt.

Assay [1] has as its system Charles River male albino mice. Nature of the assay: Writhing Assay (PBQ-induced writhing, analgesic activity). In kind it is in vivo. Particulars: Mus musculus, po, 25 min; Intragastric; 30 mg per kilogram of body weight 25 min before PBQ i.p.; writhes equal to or less than one-half the control median; read-out: number of mice out of nine or ten in which a test compound produced analgesia (converted). The text has this:
The Writhing Assay is one of the most widely-used experimental procedures for measuring the analgesic activity of different narcotic and nonnarcotic analgesic agents, and involves the continuous, chemically-induced pain of visceral origin to an animal, such as a mouse or rat. [Gyires et al., Arch. int. Pharmacodyn, 267, 131-140 (1984); […] al., Fed. Proc., 15, 494 (1956); Koster et al., Fed. Proc., 18, 412 (1959); and Witken et al., J. Pharmacol. exp. Ther., 133, 400-408 (1961).] Chemicals which may be used to induce this pain include phenylbenzoquinone (PBQ) and acetic acid. As a result of the chemical irritation to the animal, a characteristic stretching and writhing of the animal (dorsiflexion of the animal's back, extension of its hindlimbs and the strong contraction of its abdominal musculature) will generally occur. […] Drugs which reduce the number of writhes of the animal appear to restore the normal nociceptive threshold of the animal. Charles River male albino mice, weighing 20 to 30 grams were used in this assay. Twenty-five minutes after intragastric administration to nine or ten mice of 30 mg per kilogram of body weight of a compound of the present invention ("test compound"), […] of body weight of a 0.025% w/v solution of PBQ was injected intraperitoneally into each mouse. Ten mice which were given saline in place of a test compound of the invention were used as a control group. Five minutes later, each mouse was individually placed into a glass beaker for observation, and the number of writhes occurring during the following ten-minute period was counted. A test compound was considered to have produced analgesia in a mouse if, in accordance with the conditions set forth above, and under the test criteria employed for this assay, after the administration of 30 mg per kilogram of body weight of a compound of the present invention to the mouse, the number of writhes elicited by a mouse injected with PBQ was equal to, or less than, one-half the median number of writhes recorded for the saline-treated control group of mice that day, as described by Taber in "Predictive Value of Analgesic Assays in Mice and Rats," Advances in Biochemical Psychopharmacology, 8, 191 (1974). […] If this initial screening dose of the test compound produced analgesia in seven of nine or ten mice, then the effect of additional doses of the test compound on the writhing response was evaluated, and then the ED50 value (that dose of a compound which produced analgesia in 50% of the mice to which the compound was administered) was generally calculated. A maximum likelihood function was used to determine the ED50 value. (The slopes of the dose-response curves for all test compounds analyzed were compared as described by Tallarida and Murray, Manual of Pharmacologic Calculations, Page 11 (Springer Verlag, New York, 1981)). The results for the particular compounds of the present invention analyzed in this assay, and discussed in the examples identified below which correspond thereto, are presented in Table 1 hereinbelow. The compounds of the present invention which were tested in this assay, and for which results are presented in Table 1, correspond to the particular examples specified in Table 1. The fractions indicate the number of mice out of nine or ten in which a test compound produced analgesia, and the whole numbers are the calculated ED50 values.

Assay [2] has as its system prostaglandin E2 -induced contractions of segments of guinea pig ileum. Nature of the assay: Prostaglandin (PGE) Antagonism Assay. In kind it is cell-based. Particulars: dose ratio of prostaglandin E2 EC50 doses with/without test compound, initial concentration 3 micromolar. On the procedure:
In order to determine the effectiveness of several of the compounds of the present invention ("test compounds") as prostaglandin E2 antagonists,a prostaglandin antagonism assay was conducted, as described below, to determine the ability of these compounds to inhibit prostaglandin E2 -induced contractions of segments of guinea pig ileum. […] Male albino guinea pigs weighing 200 to 500 grams were sacrificed by cervical dislocation. The ilea were then quickly removed from the guinea pigs and placed in a modified Tyrode solution, a solution which is known to those skilled in the art, containing one-half of the usual amount of magnesium ions. Segments of ileum about 2 cm long were then cut and mounted in a 10-mL tissue bath containing the modified Tyrode solution. The solution was maintained at 37° C. and aerated with a gaseous mixture of 95% oxygen and 5% carbon dioxide. Data for a control prostaglandin E2 dose response curve plotting concentration of prostaglandin E2 versus the intensity of contractions, detected isotonically, was then obtained by experimentally adjusting the dose of the prostaglandin E2 being injected into the tissue bath, in a manner known by those of skill in the art. Solutions or suspensions containing an initial concentration (3 micromolar) of a test compound in modified Tyrode solution ("test solutions/suspensions") were then separately substituted for the control bath solution. Each test solution/suspension was then kept in constant contact with the ileum tissue, except for brief periods to drain the bath in preparation for rinsing with fresh test solution/suspension. A second prostaglandin E2 dose response curve was then generated for prostaglandin E2 in the presence of a test compound. A dose ratio (DR) of EC50 doses was then calculated from the results of each test in a manner known by those of skill in the art. A control dose response curve (DRC) is produced in isolated segments of guinea pig ileum mounted in an automated apparatus with six concentrations of prostaglandin E2. A solution or suspension of test compound is substituted for the control bathing solution and is incubated for thirty minutes. An additional prostaglandin E2 dose response curve is produced in the presence of the test compound. A dose ratio is calculated from the EC50 values obtained from duplicate replications on each concentration of the test compound. […] The results of this prostaglandin antagonism assay are presented in Table 2 below in terms of their dose ratio. The compounds of the present invention which were tested in this assay, and for which results are presented in Table 2, correspond to the particular examples specified in Table 2.

With `O=C(N1CCN2CCCCC2C1)N1Cc2ccccc2Oc2ccc(Cl)cc21` (centres unmarked) [Example 5, 8-chloro-10,11-dihydro-10-[(octahydro-2H-pyrido[1,2,-a]pyrazin-2-yl)carbonyl]dibenz[b,f][1,4]oxazepine hydrochloride], the responders at 30 mg/kg in assay [1] was 40%. Besides, the “Dose Ratio” value in assay [2] stood at 2.4.
